The record followed here is patent US11446299B2, “Carbazole EHop-016 derivatives as anticancer and anti-migratory agents” (UNIVERSITY OF PUERTO RICO, priority 2017, dated 2022).

One data set concerns MCF-7 cancer cells. Kind of data set: Sulforhodamine B (SRB) growth inhibition assay. It is filed as cell-based. The settings on record: Homo sapiens, MCF7, 24 h treatment, mean of triplicate, SD <10%. In a few lines:
(§1)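 Cells at 1.9×10^4/well exposed to compounds at 50, 25, 12.5, 6.3 and 1.6 μM in triplicate for 24 hrs at 37° C; DMSO 0.1% as negative control. TCA-fixed, SRB-stained, absorbance at 510 nm; GI50 from variable-slope sigmoidal dose-response curves.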

The subject of a further data set is MDA-MB-231 cancer cells. Kind of data set: Sulforhodamine B (SRB) growth inhibition assay. It is filed as cell-based, human. In a few lines:
as §1

A further data set relates to breast cancer cell. Briefly: Breast cancer cell viability (cell line not given). The data set is classed as cell-based. The note with it: breast cancer cells, at concentrations ≥1 μM.
The test system of another data set is GFP-MDA-MB-231 cells. Briefly: Mammary tumor growth and metastasis in immunocompromised mice. It is filed as in vivo. The note with it: 1 mg/kg BW i.p., Monday to Friday, approximately 2 months. Here is the method: FIG. 18 (A-D). Effect of HV-118 on mammary tumor growth. Severe combined immune deficiency (SCID) mice were inoculated at the mammary fat pad with GFP-MDA-MB-231 cells and treated with 0 (Vehicle) or 1 mg/kg BW HV-118 (5× a wk). FIG. 18A. Upper panel, representative images and lower panel, average relative tumor growth on last day. FIG. 18B. Relative tumor growth as a function of days following HV-118 administration. Lungs and livers were removed at necropsy and imaged for fluorescent metastatic foci. FIG. 18C. Representative organs under fluorescence microscopy for 0 (Vehicle) and 1 mg/kg BW HV-118 treatment. FIG. 18D. […]
Preliminary data supporting HV-118 as a potent inhibitor of Rac activation in breast cancer cells was confirmed. […] Tumor growth and metastasis were assessed by fluorescent imaging. HV-118 toxicity was also determined.
An in vivo study was performed to assess HV-118 toxicity and test its effects in mammary tumor growth and metastasis. […] The effects of HV-118 on tumor growth were monitored weekly by in situ fluorescence image analysis (starting from day 1 of treatment). Mammary tumor growth was quantified using Image J software, as the pixel intensity (integrated density) determined from digital tracing of the fluorescent tumor area at each imaging session and calculated as a function of the fluorescence intensity on day one of treatment. […]

The nature of data set [1]: HV-118 toxicity assessment in mice. The note with it: 1 mg/kg BW. It is filed as in vivo. Here is the method:
FIG. 19 (A-C). HV-118 toxicity assessment. Blood collected at necropsy was used for FIG. 19A. complete blood count (CBC) analysis and FIG. 19B. determination of serum levels of liver enzymes Alanine Aminotranferase (ALT), Aspartate Aminotransferse (AST), and Alkaline phosphatase (ALP). N=4-5 mice/group; error bars represent ±SEM. FIG. 19C. Average mouse weight as a function of days following HV-118 administration. N=13-15 mice/group.
An in vivo study was performed to assess HV-118 toxicity and test its effects in mammary tumor growth and metastasis. Immunocompromised mice were inoculated with green fluorescent protein (GFP)-tagged MDA-MB-231 cells. After tumors reached an average size of 80 mm^3, mice (n=15/group) were administered with control or HV-118 at 1 mg/kg body weight (BW) by intraperitoneal (i.p.) injection every day from Monday to Friday for approximately 2 months. The effects of HV-118 on tumor growth were monitored weekly by in situ fluorescence image analysis (starting from day 1 of treatment). Mammary tumor growth was quantified using Image J software, as the pixel intensity (integrated density) determined from digital tracing of the fluorescent tumor area at each imaging session and calculated as a function of the fluorescence intensity on day one of treatment. At necropsy, blood was collected, and organs were dissected and stored in liquid nitrogen. Metastatic foci were quantified for fluorescence intensity and area of fluorescence (lesion size) for each organ by Image J analysis of digital images from a fluorescence stero microscope. […] Toxicity was assessed by: 1) performing a hematologic profile (complete blood count (CBC) analysis), 2) measuring serum levels of liver enzymes Alanine Aminotranferase (ALT), Aspartate Aminotransferse (AST), and Alkaline phosphatase (ALP), and 3) monitoring animal weight throughout the study.

Molecules are shown by their SMILES.

By GI50 is commonly meant the concentration that inhibits growth by half. A high value points to less potent growth inhibition.

Take `CCn1c2ccccc2c2cc(C(=O)Nc3cccnc3N3CCOCC3)ccc21` [Compound 11b, 9-Ethyl-9H-carbazole-3-carboxylic Acid (2-morpholin-4-yl-pyridin-3-yl)-amide]: the GI50 with MCF-7 cancer cells is more than 50 µM; with MDA-MB-231 cancer cells (Homo sapiens, MDA-MB-231, SRB assay, 24 h treatment, mean of triplicate, SD <10%) it was more than 50 µM. In the data set on MDA-MB-231 cancer cells (MDA-MB-231, concentrations ≤50 μM), the “anti-proliferative activity / cytotoxicity in words” value is reported as “minimal cytotoxicity”. Besides, the “inhibition of breast cancer cell viability” value in the data set with breast cancer cell was 45%.
For `CCn1c2ccccc2c2cc(Nc3cc(C)nc(Cl)n3)ccc21` [HV-118, (2-Chloro-6-methyl-pyrimidin-4-yl)-(9-ethyl-9H-carbazol-3-yl)-amine], in the data set with GFP-MDA-MB-231 cells, the “reduction in metastasis to lung and liver” value is more than 90%; the “reduction in tumor growth” value came out at 30%. Further, the “toxicity at the tested dose” value in data set [1] is on record as “no toxicity”. In data set [1] (blood at necropsy), the “hematologic profile (complete blood count)” value is given as “no changes” and the “serum levels of ALT, AST, or ALP” value is “no changes”. Also, in data set [1] (throughout the study), the mice weights result is “no changes”.
